{"source": "patent US10620222B2", "about": "“Electrified compositions for determining the risk of developing adolescent idiopathic scoliosis through the use of GI protein receptor” (CHU Sainte-Justine, priority 2008, dated 2020)", "system": "receptors coupled to Gi proteins expressed on osteoblasts", "assay": "Cellular Dielectric Spectroscopy (CDS, CELLKEY) response to Gi-coupled receptor ligands in osteoblasts from control and AIS subjects", "format": "cell-based, human", "parameters": "% of control / % of control signal, Group 1, min diff. / % of control signal, Group 2, min diff. / % of control signal, Group 3, min diff.: concentration or dose not given beside the values; dZiec value / Absolute dZiec, control value of max diff. (maximal control value): unit not given here", "conditions": "for dZiec value: n1, n2 of Exper. 1-3", "text": "Bone specimens were obtained intraoperatively from vertebras (varying from T3 to L4 according to the surgical procedure performed), while with trauma cases used as non-scoliotic controls bone specimens were obtained from other anatomical sites (tibia or femur, and in one case from an iliac crest biopsy). Osteoblasts and myoblasts isolated as previously described (Moreau A, Wang D S, Forget S et al. Melatonin Signaling Dysfunction in Adolescent Idiopathic Scoliosis. Spine 2004; 29:1772-81; Azeddine et al., 2007 Molecular determinants of melatonin signaling dysfunction in adolescent idiopathic scoliosis. Clin Orthop Relat Res. 2007, 462:45-52), were cultured at 37° C./5% CO2 in MEM supplemented with 10% fetal bovine serum (FBS) and 100 μg/mL streptomycin. Prior to the experiment, cells were seeded into the CELLKEY™ label-free cellular analysis system standard 96-well plates at a density of 5×10^4/well and grown for 24 h and incubated in standard conditions (37° C./5% CO2). In some plates, Pertussis toxin (100 ng/mL, Sigma, Oakville, ON, Canada) treatment was performed 16 h before the CDS assay. Following overnight incubation, plates were placed onto the CELLKEY™ label-free cellular analysis system and growth medium was exchanged to assay buffer (Hanks, Balanced Salt Solution containing 20 mM HEPES and 0.1% BSA) before starting the experiment. Cells were then allowed to equilibrate at room temperature for 30 min. Pre-addition measurements were made for 5 min to obtain a baseline reading. […] The quick update rate (2 s.) of the CELLKEY™ label-free cellular analysis system allows detection of these immediate changes in impedance. Impedance measurements were collected for 10 min to 15 min at 28° C. after ligand addition to monitor cellular responses to ligand interaction and to generate CELLKEY™ label-free cellular analysis system response profiles that are characteristic of the signaling mechanisms used.\nThe response induced by the various ligands to their receptors was measured by cellular dielectric spectroscopy (CDS) using the CELLKEY™ label-free cellular analysis technology. (MDS Sciex, San Francisco, Calif., USA). The CELLKEY™ label-free cellular analysis system integrates a proprietary impedance measurement system, custom 96-well microliter plate, onboard 96-well fluidics, and environment control and custom acquisition and analysis software in a full solution package (MDS Sciex) that is compatible with commercially available robotic platforms. Small voltage at 24 frequencies, from 1 KHz to 10 MHz, is applied to a monolayer of cells settled in a 96-well microplate containing electrodes at the bottom, and the resultant current is measured at an update rate of 2 s. […] Onboard fluid additions and exchanges are handled by 96-well head fluid delivery device with a range of 5-500 μL. In addition to the cell plate location, the CELLKEY™ label-free cellular analysis system includes two additional stations for 96- or 384-well compound plates. All aspects of assay set up, execution, and data acquisition and analysis are controlled by CELLKEY™ label-free cellular analysis software.\nThe minimal (min) and maximal (max) values represent the mean of three independent measurements performed in duplicate (six values in total) for a given patient/control subject. […] Duplicates (n1 and n2) of three independent experiments are presented.", "key": {"[1]": {"conditions": "osteoblasts of control subjects, 300 μM ligand, from FIGS. 11A-11F"}}, "note": "Values joined by “and” are separate entries in the source; they are usually repeats but may differ in a detail not shown here. Identical values can stand only once.", "data": [{"smiles": "CNC(=O)[C@H]1O[C@@H](n2cnc3c(NCc4cccc(I)c4)ncnc32)[C@H](O)[C@@H]1O", "note": "[IB-meca, 1-Deoxy-1-[6-[[(3-iodophenyl)methyl]amino]-9H-purin-9-yl]-N-methyl-β-D-ribofuranuronamide]", "values": [{"measurement": "% of control", "setting": "osteoblasts of AIS#1020 (Group 3) relative to CTR#60", "value": "50.1% and 47.6% and 50.6% and 47.2% and 47.5% and 50.0%"}, {"measurement": "dZiec value", "setting": "osteoblasts of AIS#1020 (Group 3), 300 μM ligand", "value": "74.19 and 76.19 and 87.32 and 85.32 and 76.76 and 84.76"}, {"measurement": "% of control", "setting": "osteoblasts of AIS#1198 (Group 3 in Table II) relative to CTR#69", "value": "41.1% and 45.4% and 47.8% and 50.0% and 45.1% and 47.6%"}, {"measurement": "dZiec value", "setting": "osteoblasts of AIS#1198 (Group 3 in Table II), 300 μM ligand", "value": "63.58 and 75.58 and 85.63 and 93.63 and 75.61 and 83.61"}, {"measurement": "% of control", "setting": "osteoblasts of AIS#1385 (Group 2) relative to CTR#69", "value": "47.6% and 45.3% and 47.5% and 44.4% and 44.9% and 47.4%"}, {"measurement": "dZiec value", "setting": "osteoblasts of AIS#1385 (Group 2), 300 μM ligand", "value": "73.49 and 75.49 and 85.15 and 83.15 and 75.32 and 83.32"}, {"measurement": "% of control", "setting": "osteoblasts of AIS#1468 (Group 3) relative to CTR#61", "value": "77.6% and 79.5% and 78.4% and 78.2% and 79.4%"}, {"measurement": "dZiec value", "setting": "osteoblasts of AIS#1468 (Group 3), 300 μM ligand", "value": "98.77 and 110.77 and 121.90 and 129.90 and 111.34 and 119.34"}, {"measurement": "% of control", "setting": "osteoblasts of AIS#1474 (Group 1) relative to CTR#60", "value": "21.1% and 18.9% and 21.2% and 20.8% and 18.5% and 22.4%"}, {"measurement": "dZiec value", "setting": "osteoblasts of AIS#1474 (Group 1), 300 μM ligand", "value": "31.25 and 30.25 and 36.61 and 37.61 and 29.93 and 37.93"}, {"measurement": "% of control", "setting": "osteoblasts of AIS#1488 (Group 1) relative to CTR#69", "value": "25.5% and 24.8% and 26.8% and 24.5% and 23.6% and 27.1%"}, {"measurement": "dZiec value", "setting": "osteoblasts of AIS#1488 (Group 1), 300 μM ligand", "value": "39.34 and 41.34 and 47.91 and 45.91 and 39.63 and 47.63"}, {"measurement": "% of control", "setting": "osteoblasts of AIS#1513 (Group 3) relative to CTR#61", "value": "61.6% and 64.9% and 67.0% and 68.6% and 64.8% and 66.7%"}, {"measurement": "dZiec value", "setting": "osteoblasts of AIS#1513 (Group 3), 300 μM ligand", "value": "78.36 and 90.36 and 104.12 and 112.12 and 92.24 and 100.24"}, {"measurement": "% of control", "setting": "osteoblasts of AIS#1550 (Group 2) relative to CTR#60", "value": "44.2% and 42.1% and 47.0% and 43.8% and 42.9% and 45.6%"}, {"measurement": "dZiec value", "setting": "osteoblasts of AIS#1550 (Group 2), 300 μM ligand", "value": "65.47 and 67.47 and 81.23 and 79.23 and 69.35 and 77.35"}, {"measurement": "dZiec value", "setting": "osteoblasts of control CTR#60, 300 μM ligand", "value": "148.22/— and 160.22/— and 172.73/— and 180.73/— and 161.48/— and 169.48/—"}, {"measurement": "dZiec value", "setting": "osteoblasts of control CTR#61, 300 μM ligand", "value": "127.27/— and 139.27/— and 155.44/— and 163.44/— and 142.36/— and 150.36/—"}, {"measurement": "dZiec value", "setting": "osteoblasts of control CTR#69, 300 μM ligand", "value": "154.52/— and 166.52/— and 179.10/— and 187.10/— and 167.81/— and 175.81/—"}, {"measurement": "Absolute dZiec, control value of max diff. (maximal control value)", "setting": "[1]", "value": 172}, {"measurement": "Absolute dZiec, control value of min diff. (minimal control value)", "setting": "[1]", "value": 132}, {"measurement": "Absolute dZiec, Group 1, max diff. (group value)", "setting": "osteoblasts, AIS Group 1 value of max diff., 300 μM ligand, from FIGS. 11A-11F", "value": 20}, {"measurement": "Absolute dZiec, Group 1, min diff. (group value)", "setting": "osteoblasts, AIS Group 1 value of min diff., 300 μM ligand, from FIGS. 11A-11F", "value": 43}, {"measurement": "% of control signal, Group 1, max diff.", "setting": "osteoblasts, AIS Group 1 vs maximal control value", "value": 12, "unit": "%"}, {"measurement": "% of control signal, Group 1, min diff.", "setting": "osteoblasts, AIS Group 1 vs minimal control value", "value": 33, "unit": "%"}, {"measurement": "Absolute dZiec, Group 2, max diff. (group value)", "setting": "osteoblasts, AIS Group 2 value of max diff., 300 μM ligand, from FIGS. 11A-11F", "value": 73}, {"measurement": "Absolute dZiec, Group 2, min diff. (group value)", "setting": "osteoblasts, AIS Group 2 value of min diff., 300 μM ligand, from FIGS. 11A-11F", "value": 80}, {"measurement": "% of control signal, Group 2, max diff.", "setting": "osteoblasts, AIS Group 2 vs maximal control value", "value": 42, "unit": "%"}, {"measurement": "% of control signal, Group 2, min diff.", "setting": "osteoblasts, AIS Group 2 vs minimal control value", "value": 61, "unit": "%"}, {"measurement": "Absolute dZiec, Group 3, max diff. (group value)", "setting": "osteoblasts, AIS Group 3 value of max diff., 300 μM ligand, from FIGS. 11A-11F", "value": 98}, {"measurement": "Absolute dZiec, Group 3, min diff. (group value)", "setting": "osteoblasts, AIS Group 3 value of min diff., 300 μM ligand, from FIGS. 11A-11F", "value": 115}, {"measurement": "% of control signal, Group 3, max diff.", "setting": "osteoblasts, AIS Group 3 vs maximal control value", "value": 55, "unit": "%"}, {"measurement": "% of control signal, Group 3, min diff.", "setting": "osteoblasts, AIS Group 3 vs minimal control value", "value": 87, "unit": "%"}]}]}
